Consider eight compounds from US20100331330A1, “METHODS AND COMPOSITIONS FOR TREATING ISCHEMIC STROKE” (priority 2006, published 2010).

Some results are limits rather than exact numbers.

For data set [1], the system named is rodent models of cerebral ischemia. To be noted: in vivo; cited from earlier work.
The test system of data set [2] is cultured cerebellar granule neurons. Conditions: cited from earlier work.
The next data set deals with rat cerebellum. To be noted: injection; bacterial lipopolysaccharide and interferon-γ; cited from earlier work.
The next data set deals with hemorrhagic stroke. To be noted: in vivo; cited from earlier work.
Data set [3] concerns rats subjected to middle cerebral artery occlusion (MCAO). Conditions: 90 minute MCAO. An excerpt:
Male Wistar rats, 250-350 g, were obtained from Charles River (Wilmington, Mass.). Animals were housed and cared for in the Animal Resource Center and allowed free access to food and water before and after surgery. All procedures were approved by the Institutional Animal Care and Use Committee of Case Western Reserve University.
A 4.0 nylon suture with a flame rounded tip was advanced through the internal carotid artery to occlude the MCA while cerebral blood flow was monitored using laser doppler (Perimed AB, Jarfalla, Sweden). At the time of reperfusion rats were again anesthetized and the suture removed with cerebral blood flow monitoring to ensure reperfusion. Arterial blood pressure, arterial blood gases and temperature were all monitored and controlled during the length of the procedure.
Control animals were injected with 0.1 ml DMSO.
Rats were euthanized by exposure to 5% halothane until breathing ceased. They then underwent intracardiac perfusion first with PBS and then with 4% paraformaldehyde. Brains were isolated and immersion fixed in 4% paraformaldehyde overnight. Tissue was cryoprotected in 30% sucrose in PBS. Twenty micron frozen sections were collected every […] beginning at the level of the forceps minor corpus callosum and extending through the hippocampus. Sections were stained with Thionin and the area of infarction measured using Bioquant computer software (R&M Biometrics, Nashville, Tenn.) by subtracting the uninfarcted tissue in the ischemic hemisphere from the volume of the contralateral hemisphere. This method corrects for post-ischemic edema.
Male Wistar rats, 250-350 g, were obtained from Charles River (Wilmington, Mass.). […] Animals were housed and cared for in the Animal Resource Center and allowed free access to food and water before and after surgery. […] The tail artery was exposed and cannulated to measure mean arterial blood pressure and to obtain blood for blood gas measurements during surgery. Animals in which normal temperature, blood pressure and gases could not be maintained were excluded from the study. MCAO was performed as previously described. Briefly, the bifurcation of the common carotid artery was exposed. The external carotid artery was isolated and a suture placed 0.5 cm from the bifurcation. Following electrocoagulation distal to the suture the external carotid was cut between the suture and the electrocoagulated segment. A suture was applied to the common carotid artery such that it could be removed later. A loop of suture was then placed under the internal carotid artery and the artery elevated to transiently occlude blood flow. A small nick was made in the wall of the external carotid artery. Through this nick a 22 mm length of 4.0 Ethicon suture, its tip rounded by heating near a flame, was gently threaded from the external to the internal carotid artery lumen to a distance of 18 mm from the bifurcation of the carotid. The thread was held in place with a suture around the stump of the external carotid artery and the suture around the internal carotid artery released. The catheter was removed from the tail artery and both incisions were closed. The rats were then allowed to recover from anesthesia. […] The neck incision was reopened and the 4.0 Ethicon suture removed. The suture that held it in place was tightened and the suture around the common carotid artery was removed. After confirmation of reperfusion by visual inspection, the incision was closed and the animal allowed to recover.
Twenty micron frozen sections of paraformaldehyde fixed brains were collected every 1000 μm beginning at the level of the forceps minor corpus callosum and extending through the hippocampus. The slides were stained with Thionin. The sections were then trans-illuminated and the image transmitted to a computer screen.

A further data set has as its target T1, PPARγ (Homo sapiens, UniProt P37231).
T1 sequence (P37231 1-505): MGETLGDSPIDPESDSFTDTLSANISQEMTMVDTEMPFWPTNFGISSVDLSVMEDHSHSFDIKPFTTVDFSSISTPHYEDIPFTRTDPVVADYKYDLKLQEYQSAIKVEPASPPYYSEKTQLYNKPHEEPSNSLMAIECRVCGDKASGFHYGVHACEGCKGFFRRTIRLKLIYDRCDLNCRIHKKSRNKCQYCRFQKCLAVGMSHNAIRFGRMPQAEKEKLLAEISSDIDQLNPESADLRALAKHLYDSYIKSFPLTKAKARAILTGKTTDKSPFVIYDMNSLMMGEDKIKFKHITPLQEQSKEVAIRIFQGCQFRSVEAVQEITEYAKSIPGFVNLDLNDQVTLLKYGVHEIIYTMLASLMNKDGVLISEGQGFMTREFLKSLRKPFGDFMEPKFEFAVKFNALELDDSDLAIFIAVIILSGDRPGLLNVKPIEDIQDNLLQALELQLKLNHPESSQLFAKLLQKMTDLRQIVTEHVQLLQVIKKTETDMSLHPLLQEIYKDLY
Conditions: cited from earlier work.

A further data set has as its system ICAM mRNA. The experiment in a line: ICAM mRNA by real time PCR after MCAO. Format: in vivo, rat. To be noted: rosiglitazone 0.1 mg/kg or pioglitazone 1 mg/kg 24 h before and at time of 2 hour MCAO; sacrificed 24 h later.
A further data set deals with T2, PPARγ-PPRE binding (Rattus norvegicus, UniProt O88275).
T2 construct: from tissue; host or cells: rat brain nuclear extract (ipsilateral and contralateral hemisphere after MCAO)
T2 sequence (O88275 1-505): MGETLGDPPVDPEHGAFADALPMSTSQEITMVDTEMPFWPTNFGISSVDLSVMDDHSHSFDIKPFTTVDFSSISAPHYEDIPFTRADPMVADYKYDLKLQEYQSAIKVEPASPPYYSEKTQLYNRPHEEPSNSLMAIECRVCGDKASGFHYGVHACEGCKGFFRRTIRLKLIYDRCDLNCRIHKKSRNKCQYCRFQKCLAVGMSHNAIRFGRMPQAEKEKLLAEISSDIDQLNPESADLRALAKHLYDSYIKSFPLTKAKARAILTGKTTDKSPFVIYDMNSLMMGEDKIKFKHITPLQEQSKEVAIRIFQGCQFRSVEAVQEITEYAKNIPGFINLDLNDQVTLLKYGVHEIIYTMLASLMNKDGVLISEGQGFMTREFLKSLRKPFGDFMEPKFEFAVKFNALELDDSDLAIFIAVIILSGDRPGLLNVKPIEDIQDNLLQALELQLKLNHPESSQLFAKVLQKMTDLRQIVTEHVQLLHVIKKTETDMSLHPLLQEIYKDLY
T2 sequence (Q05343 1-467 partner): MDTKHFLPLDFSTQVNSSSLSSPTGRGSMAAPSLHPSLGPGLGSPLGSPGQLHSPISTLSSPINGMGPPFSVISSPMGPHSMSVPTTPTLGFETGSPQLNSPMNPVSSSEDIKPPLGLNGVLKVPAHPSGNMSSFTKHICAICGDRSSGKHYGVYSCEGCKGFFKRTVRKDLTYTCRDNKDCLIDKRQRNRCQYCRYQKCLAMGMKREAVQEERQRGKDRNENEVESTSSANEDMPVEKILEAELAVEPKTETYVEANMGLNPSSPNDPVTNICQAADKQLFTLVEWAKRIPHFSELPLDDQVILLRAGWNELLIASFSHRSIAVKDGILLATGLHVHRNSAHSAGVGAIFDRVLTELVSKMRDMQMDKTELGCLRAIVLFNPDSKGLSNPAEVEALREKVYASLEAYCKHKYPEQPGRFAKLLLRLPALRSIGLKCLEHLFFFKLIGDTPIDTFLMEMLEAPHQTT
The experiment in a line: Electrophoretic mobility shift assay of PPARγ DNA (PPRE) binding in brain nuclear extract. Conditions: both ipsilateral and contralateral hemispheres, 0.1 mg/kg 24 h before and at time of 2 hour MCAO. In kind it is in vivo. As for the experimental part:
Eight hours after the onset of MCAO the animals were euthanized by halothane inhalation and the brains quickly removed. Blocks of tissue 4 mm thick encompassing the rostral caudal extension of the infarct and the same area on the contralateral hemisphere were dissected free and snap frozen in liquid nitrogen. Nuclear extraction was performed and protein concentrations were determined using the Bradford method.
Ten micrograms of nuclear extract protein was incubated with 32P-labeled double stranded oligonucleotide (40 fmol) containing the PPAR responsive element sequences in rat acyl CoA oxidase promoter (5′-[…]-3′) (SEQ ID NO: 5). For competition assays, 100 fold radioinert (cold) competitor oligonucleotides were included in the reaction mixture. Interference assays with antibody to PPARγ (2 μg/reaction; SC-7273x, Santa Cruz Biotechnology,) were used to determine specificity of PPARγ-PPRE binding.
Nucleoprotein-oligonucleotide complexes were resolved electrophoretically on a 7% non-denaturing polyacrylamide gel. The gel was autoradiographed and optical density was assessed using Kodak Analysis (EDAS) 290 system.

The subject of a further data set is LPL mRNA. Description: Lipoprotein lipase (LPL) mRNA by real time PCR after MCAO. Conditions: rosiglitazone 0.1 mg/kg, pioglitazone 1.0 mg/kg; 24 h before and at time of 2 hour MCAO; tissue 24 h later. In kind it is in vivo, rat. An excerpt: At the time of sacrifice the animal was placed in an anesthesia chamber and exposed to 5% halothane, 30% oxygen, 65% nitrous oxide until it ceased breathing. The rat was the, processed for either histologic and immunocytochemical analysis or decapitated and the brain immediately dissected for mRNA isolation. Animals used for immunohistochemistry underwent intracardiac perfusion; the thoracic cavity was opened, a blunt needle placed through the left ventricle into the aorta and the right atrium cut. Animals were perfused through the heart, first with 0.1 M phosphate buffer and then with 4% paraformaldehyde (pH 7.4). The brain was removed from the rat and immersion fixed in 4% paraformaldehyde for an additional hour. Tissue was then transferred to 30% sucrose in phosphate buffer in order to cyroprotect it. Brains were mounted in OCT sectioning medium and frozen sections cut at either twenty microns (for infarct volume determination) or ten microns (for immunocytochemistry). Animals used in real time PCR experiments were decapitated after euthanasia and the brain quickly removed.
A 2 mm thick coronal slice of tissue through the area of maximal infarction was quickly homogenized in Trizol (Gibco BRL, Rockville, Md.). […] RNA was isolated using Life Technologies Protocol (Rockville, Md.), and cDNA synthesized from 1.5 μg of total RNA. […]

Data set [4] in a line: Physiologic parameters and cerebral blood perfusion monitoring during MCAO. To be noted: during MCAO surgery. Format: in vivo, rat. Here is the method: MCAO was performed as previously described. […] The rats were then allowed to recover from anesthesia.
Male Wistar rats were anesthetized with halothane. Cerebral blood perfusion was monitored during surgery and reperfusion including the time of occlusion and the time of reperfusion. A small craniotomy was made midway between the corner of the eye and the external auditory canal. A laser Doppler probe (Perimed AB, Järfälla, Sweden) was placed such that its beam passed through the craniotomy and cerebral blood perfusion measured. Once the baseline measurement was obtained, MCAO was performed. Cerebral blood perfusion was monitored at the time of MCAO and at the time of reperfusion. There were no significant differences in cerebral blood flow reductions during MCAO for any of the treatment groups. Following completion of MCAO, animals were allowed to recover and returned to their cages.

Take `Cc1c(C)c2c(c(C)c1O)CCC(C)(COc1ccc(CC3SC(=O)NC3=O)cc1)O2` (single isomer, unassigned; (+)) [troglitazone, (+)-5[[4-[(3,4-dihydro-6-hydroxy-2,5,7,8-tetramethyl-2H-1-benzopyran-2-yl)methoxy]phenyl]methyl]-2,4thiazolidinedione]: in data set [1], the “neuroprotection in rodent models of cerebral ischemia” value is reported as “effective neuroprotective agents”. Also, in [2], the “cell death following glutamate exposure” value is reported as “reduces cell death” and the low-potassium-induced apoptosis entry was “suppresses low-potassium-induced apoptosis”. Further, the “cell death in rat cerebellum” value in the data set with rat cerebellum was “reduces cell death”.

`CCCCC[C@H](O)/C=C/[C@H]1C(=O)C=C[C@@H]1C/C=C\CCCC(=O)O` [prostaglandin J2]: the “benefit in hemorrhagic stroke” value in the data set with hemorrhagic stroke is listed as “beneficial in hemorrhagic stroke”.

In turn, `O=C(Nc1ccncc1)c1cc([N+](=O)[O-])ccc1Cl` [T0070907] returned a mean absolute infarction volume in data set [3] (T0070907 24 h before and at time of MCAO) of 176 mm³. Moreover, in [3] (panel B), the animals that died result is on record as “one animal”.

With `CCCCC/C=C/C=C1/C(=O)C=C[C@@H]1C/C=C\CCCC(=O)O` [15-deoxy-D12,14-prostaglandin J2], the “concentrations at which it binds PPARγ” value at PPARγ was 2 to 5 µM. Also, in the data set with rat cerebellum, the “cell death in rat cerebellum” value was “reduces cell death”.

Take `CCCCCCCCCCCCCCCCOC[C@H](COP(=O)([O-])OCC[N+](C)(C)C)OC(=O)CCCCCCCC(=O)O` [hexadecyl azelaoyl phosphatidyicholine]: on PPARγ, the Kd was roughly 40 nM.

As to `CN(CCOc1ccc(CC2SC(=O)NC2=O)cc1)c1ccccn1` (centres unmarked) [rosiglitazone, 5-[4-[2-(N-methyl-N-(2-pyridyl)amino]ethoxy]benzyl]thiazolidine-2,4-dione], the “ICAM mRNA compared with vehicle treated rats” value in the data set on ICAM mRNA is reported as “significant reduction in ICAM mRNA”. Moreover, the “PPARγ-PPRE binding (densitometry), in words” value on PPARγ-PPRE binding is “significantly increase PPARγ-PPRE binding”; at PPARγ-PPRE binding (listed as Rosiglitazone), “increased DNA binding in both the ischemic and the non-ischemic hemispheres”. For the same compound, the “increase in LPL mRNA levels within the ischemic hemisphere” value in the data set on LPL mRNA is on record as 254%. Moreover, the “physiologic parameters (temperature, arterial blood gases, blood pressure, cerebral blood flow) versus vehicle” value in [4] is “no differences in physiologic parameters”.

Consider Nitrolinoleic acid, for which, at PPARγ, the Ki is greater than 1000 nM.

Consider `CC(C)Cc1ccc(C(C)C(=O)O)cc1` (centres unmarked) [ibuprofen], for which, in the data set with rat cerebellum, the “cell death in rat cerebellum” value was “reduces cell death”.
